Assay results published in PMC4757856 (Medchemcomm, 2015).

How the values were obtained:
[1] = target: T1, PfNMT (Plasmodium falciparum, UniProt Q9U419); assay: NMT enzyme inhibition assay; assay type: biochemical; settings: for LipE: LipE = pKi (PfNMT) - clog P
T1 sequence (Q9U419 1-410): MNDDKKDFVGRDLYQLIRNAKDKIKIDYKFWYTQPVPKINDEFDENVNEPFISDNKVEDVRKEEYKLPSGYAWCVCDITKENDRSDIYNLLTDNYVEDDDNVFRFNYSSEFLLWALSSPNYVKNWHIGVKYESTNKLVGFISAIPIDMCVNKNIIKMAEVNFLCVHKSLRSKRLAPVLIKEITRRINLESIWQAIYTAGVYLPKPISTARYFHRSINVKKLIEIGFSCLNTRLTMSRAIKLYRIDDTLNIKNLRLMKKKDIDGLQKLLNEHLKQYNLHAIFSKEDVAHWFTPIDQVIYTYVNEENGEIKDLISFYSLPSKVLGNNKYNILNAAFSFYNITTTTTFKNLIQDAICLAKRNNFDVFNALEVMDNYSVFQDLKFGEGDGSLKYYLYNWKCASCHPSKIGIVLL

[2] = test system: HepG2 cell line; assay: HepG2 toxicity assay; assay type: cell-based, human; settings: 48 hours, MTS

SMILES	LipE [1]	LD50 [2]	further results
c1ccc(Cc2noc(-c3cccnc3OC3CCNCC3)n2)cc1 [Compound 7]			fold improvement in enzyme affinity ([1]; PfNMT, 7 vs. 3): 10 fold
COc1cccc(Cc2noc(-c3ccccc3OC3CCNCC3)n2)c1 [Compound 18]	3.32		
Cc1nn(C)c(C)c1Cc1noc(-c2cccnc2OC2CCNCC2)n1 [Compound 25]		>100 µM	
Cc1nn(C)c(C)c1Cc1noc(-c2cccnc2OC2CCN(C(C)C)CC2)n1 [Compound 28]		>100 µM	
c1cnc(OC2CCNCC2)c(-c2nc(Cc3cccc4ncccc34)no2)c1 [Compound 30]	5.63		
